These results are taken from patent US4343949A, “Novel 2-substituted-3,4-epoxycyclopentan-1-ones, 2-substituted-3,4-epoxycyclopentan-1-ols, and various 2-substituted-cyclopentenones” (American Cyanamid Company, priority 1979, dated 1982).

In test [1] the test system is bronchospasms elicited by 5-hydroxytryptamine. Description: bronchodilator activity (Konzett assay) against 5-hydroxytryptamine bronchospasm. As to conditions: Cavia porcellus; spasmogenic agent 5-hydroxytryptamine; three logarithmic cumulative intravenous doses. It counts as in vivo, guinea pigs. The method, then:
(§1) Bronchodilator activity was determined in guinea pigs against bronchospasms elicited by intravenous injections of 5-hydroxytryptamine, histamine or acetylcholine by the Konzett procedure. (See J. Lulling, P. Lievens, F. El Sayed and J. Prignot, Arzeimittel-Porschung, 18 995 (1968).]
(§2) In the Table which follows bronchodilator activity for representative compounds of this invention against one or more of the three spasmogenic agents is expressed as an ED50 determined from the results obtained with three logarithemic cumulative intravenous doses.

In test [2] the test system is bronchospasms elicited by histamine. Description: bronchodilator activity (Konzett assay) against histamine bronchospasm. As to conditions: Cavia porcellus; spasmogenic agent histamine; three logarithmic cumulative intravenous doses. Type of test: in vivo, guinea pigs. How it is done: as §1, §2
Test [3] has as its system bronchospasms elicited by acetylcholine. The test is described as follows: bronchodilator activity (Konzett assay) against acetylcholine bronchospasm. Type of test: in vivo, guinea pigs. As to conditions: Cavia porcellus; spasmogenic agent acetylcholine (head prints choline); three logarithmic cumulative intravenous doses. How it is done: as §1, §2
Test [4] concerns ulcerogenic properties of indomethacin. Description: protection against the ulcerogenic properties of indomethacin (stomach ulcer score). To be noted: indomethacin 20 mg./kg. s.c., 2.5 or lower = active. It counts as in vivo, Rats. How it is done: The compounds of this invention provide protection against the ulcerogenic properties of indomethacin. This assay was carried out in the following manner.
Rats were starved for 48 hours (water was given ad libitum). Indomethacin (20 mg./kg. of body weight) was administered by the subutaneous route and one-half the dose of the test compound was administered by gavage at the same time. After three hours, the second half of the test compound was administered also by Gavage. Five hours after the administration of indomethacin the animals were decapitated and the stomachs removed. The stomachs were washed with distilled water, blotted on gauze, cut along the larger curvature, and the contents rinsed with distilled water. The stomachs were spread out, pinned on a cork and visualized under magnifying glass for ulcers. The criteria for scoring of ulcers was as previously reported. [Abdel-Galil et al. Brit. J. Pharmac. Chemotherapy 33:1-14 (1968)]. […]
______________________________________
Petechial hemorrhage or pin point ulcer
Many ulcers, a few large
Many ulcers, mainly large
Control animals treated with indomethacin but not test compound consistently give scores of about 3.0-3.5. Control animals treated with neither indomethacin nor test compound give scores of about 0.5-0.8. Compounds producing a score of 2.5 or lower are considered to be active.

The mark [5] stands for this setting: total oral dose 25 mg./kg. of body weight, control score 3.2.

As for `CCCCCC(O)/C=C/C1CCC(=O)C1CCCCCC(CC)C(=O)O` (stereo not drawn) [9-oxo-15-hydroxy-2-ethyl-13-trans-prostenoic acid], the figures for the ED50 in test [1], in test [2] and in test [3] were 0.329 µg/kg, 0.145 µg/kg and 0.533 µg/kg, respectively.
Turning to `CCCCCC(O)/C=C/C1CCC(=O)C1(C)CCCCCCC(=O)O` (stereo not drawn) [9-oxo-8β-methyl-15-hydroxy-13-trans-prostenoic acid], the “Score, Treated (stomach ulcer score)” value in test [4] (total oral dose 12.5 mg./kg. of body weight, control score 3.0) is recorded as 2.0.
With `CCCCCC(O)/C=C\C1CCC(=O)C1CCCCCCC(=O)O` (stereo not drawn) [9-oxo-15-hydroxy-13-cis-prostenoic acid], the figures for the ED50 in test [1] and in test [3] were 0.106 µg/kg and 0.32 µg/kg, respectively.
Consider `CCCCCC(O)/C=C/C1CCC(=O)C1CCCCSCC(=O)O` (stereo not drawn) [9-oxo-3-thia-15-hydroxy-13-trans-prostenoic acid], for which the “Score, Treated (stomach ulcer score)” value in test [4] (setting [5]) is recorded as 1.8.
On the same count and under the same terms, then `CCCCCC(O)/C=C/C1CCC(=O)C1CCCCSCC(=O)O` (stereo not drawn) [9-oxo-3-thia-15-epi-hydroxy-13-trans-prostenoic acid], with 2.3.
